Where a name gives a salt, the structure may show the parent alone. Read-outs that look alike come from different tables or passages of the source.

This assay addresses human SPR (Homo sapiens (Human), UniProt P35270). Description: Evaluation Example 2: Measurement of human SPR inhibitory activity (seven concentrations, sepiapterin absorbance at 420 nm). Type of assay: biochemical. In short, it runs like this: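 Reactions ran 240 min at room temperature in 100 mM Tris-HCl pH 7.5 with 0.01% BSA. They contained tag-cleaved, E. coli-expressed full-length human SPR (diluted to 150 ng/mL), seven compound concentrations from 0.14 to 100 nM, and sepiapterin/NADPH added as a 120 μM/160 μM solution. Inhibition was calculated from sepiapterin absorbance at 420 nm.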

[1] abbreviates: Evaluation Example 2, seven concentrations 0.14 nM to 100 nM, 240 minutes at room temperature, read-out: IC50.
Setting [2] is: sepiapterin absorbance, Table 41, read-out: concentration at 50% inhibition of human SPR (IC50).

human SPR, sequence (P35270 whole entry): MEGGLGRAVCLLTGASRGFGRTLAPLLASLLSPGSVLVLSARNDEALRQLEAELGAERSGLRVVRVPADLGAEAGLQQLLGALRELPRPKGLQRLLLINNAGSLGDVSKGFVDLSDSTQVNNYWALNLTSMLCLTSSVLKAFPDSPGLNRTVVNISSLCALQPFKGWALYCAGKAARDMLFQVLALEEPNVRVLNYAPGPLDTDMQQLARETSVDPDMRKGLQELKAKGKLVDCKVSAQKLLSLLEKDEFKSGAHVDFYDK

With `CC(C)Cn1c(=O)c(C(=O)NC2CC2)c(O)n2ncc(/C=C/C(=O)N3CCOCC3CC(F)(F)F)c12` (single isomer, unassigned) [compound 550, (E)-N-Cyclopropyl-7-hydroxy-4-isobutyl-5-oxo-3-(3-oxo-3-(3-(2,2,2-trifluoroethyl)morpholino)prop-1-en-1-yl)-4,5-dihydropyrazolo[1,5-a]pyrimidine-6-carboxamide (Isomer], the IC50 under setting [1] amounted to 0.79 nM.

With `CC(C)(C)Cn1c(=O)c(C(=O)NC2CC2)c(O)n2nc(Nc3cnc(C(=O)N4CCC(C#N)CC4)cn3)cc12` [Synthesis Example 359, 2-((5-(4-Cyanopiperidine-1-carbonyl)pyrazin-2-yl)amino)-N-cyclopropyl-7-hydroxy-4-neopentyl-5-oxo-4,5-dihydropyrazolo[1,5-a]pyrimidine-6-carboxamide], the IC50 under setting [1] was 0.88 nM.

Turning to `Cc1cncc(Nc2cc3n(CC(C)(C)C)c(=O)c(C(=O)NC4CC4)c(O)n3n2)n1` [Synthesis Example 330, N-Cyclopropyl-7-hydroxy-2-((6-methylpyrazin-2-yl)amino)-4-neopentyl-5-oxo-4,5-dihydropyrazolo[1,5-a]pyrimidine-6-carboxamide], the IC50 under setting [1] was found to be 1.83 nM.

Turning to `Nc1nn2c(O)c(C(=O)NC3CC3)c(=O)n(CC3CCOCC3)c2c1/C=C/C1CCOCC1` [Synthesis Example 443, (E)-2-Amino-N-cyclopropyl-7-hydroxy-5-oxo-4-((tetrahydro-2H-pyran-4-yl)methyl)-3-(2-(tetrahydro-2H-pyran-4-yl)vinyl)-4,5-dihydropyrazolo[1,5-a]pyrimidine-6-carboxamide hydrochloride], the IC50 under setting [1] amounted to 0.65 nM.

`CC(C)Cn1c(=O)c(C(=O)NC2CC2)c(O)n2ncc(/C=C/C(=O)N3CCC[C@@H]3c3ccccc3)c12` [compound 607, (R,E)-N-Cyclopropyl-7-hydroxy-4-isobutyl-5-oxo-3-(3-oxo-3-(2-phenylpyrrolidin-1-yl)prop-1-en-1-yl)-4,5-dihydropyrazolo[1,5-a]pyrimidine-6-carboxamide]: the IC50 under setting [1] was found to be 1.67 nM.

With `Cc1nn2c(O)c(C(=O)NC3CC3)c(=O)n(CC(C)C)c2c1/C=C/C(=O)N1CCN(C)C[C@H]1C` [Synthesis Example 702, (R,E)-N-Cyclopropyl-3-(3-(2,4-dimethylpiperazin-1-yl)-3-oxoprop-1-en-1-yl)-7-hydroxy-4-isobutyl-2-methyl-5-oxo-4,5-dihydropyrazolo[1,5-a]pyrimidine-6-carboxamide], under setting [2], the IC50 is 0.87 nM.

As for `Cc1nn2c(O)c(C(=O)NC3CC3)c(=O)n(CC(C)C)c2c1/C=C/C(=O)N(C)CC#N` [Synthesis Example 681, (E)-3-(3-((Cyanomethyl)(methyl)amino)-3-oxoprop-1-en-1-yl)-N-cyclopropyl-7-hydroxy-4-isobutyl-2-methyl-5-oxo-4,5-dihydropyrazolo[1,5-a]pyrimidine-6-carboxamide], the IC50 under setting [1] was determined as 0.64 nM.

Take `CC(C)(C)Cn1c(=O)c(C(=O)NC2CC2)c(O)n2nc3c(c12)CCOC(=O)N3` [Synthesis Example 401, N-Cyclopropyl-9-hydroxy-6-neopentyl-2,7-dioxo-1,2,4,5,6,7-hexahydropyrimido[1′,2′:1,5]pyrazolo[3,4-d][1,3]oxazepine-8-carboxamide]: the IC50 under setting [1] worked out at 0.56 nM.

For the molecule `CC(C)(C)Cn1c(=O)c(C(=O)NC2CC2)c(O)n2nc(Nc3cnc(C#N)cn3)cc12` [Synthesis Example 323, 2-((5-Cyanopyrazin-2-yl)amino)-N-cyclopropyl-7-hydroxy-4-neopentyl-5-oxo-4,5-dihydropyrazolo[1,5-a]pyrimidine-6-carboxamide], the IC50 under setting [1] came out at 1.2 nM.

As to `CC(C)Cn1c(=O)c(C(=O)NC2CC2)c(O)n2ncc(/C=C/C(=O)N3CCC(C(F)(F)F)CC3)c12` [compound 480, (E)-N-Cyclopropyl-7-hydroxy-4-isobutyl-5-oxo-3-(3-oxo-3-(4-(trifluoromethyl)piperidine-1-yl)prop-1-en-1-yl)-4,5-dihydropyrazolo[1,5-a]pyrimidine-6-carboxamide], the IC50 under setting [1] was 1.12 nM.

On to `COc1ccc2c(n1)nn1c(O)c(C(=O)NC3CC3)c(=O)n(CC(C)(C)C)c21` [Synthesis Example 393, N-Cyclopropyl-4-hydroxy-8-methoxy-1-neopentyl-2-oxo-1,2-dihydropyrido[2′,3′:3,4]pyrazolo[1,5-a]pyrimidine-3-carboxamide], for which the IC50 under setting [1] came to 1.38 nM.

As to `Cc1cc2n(CC(C)C)c(=O)c(C(=O)NC3CC3)c(O)n2n1` [Synthesis Example 319, N-Cyclopropyl-7-hydroxy-4-isobutyl-2-methyl-5-oxo-4,5-dihydropyrazolo[1,5-a]pyrimidine-6-carboxamide], the IC50 under setting [1] is 3.16 nM.

As for `CC[C@H]1COCCN1C(=O)/C=C/c1cnn2c(O)c(C(=O)NC3CC3)c(=O)n(CC(C)C)c12` [compound 544, (S,E)-N-Cyclopropyl-3-(3-(3-ethylmorpholino)-3-oxoprop-1-en-1-yl)-7-hydroxy-4-isobutyl-5-oxo-4,5-dihydropyrazolo[1,5-a]pyrimidine-6-carboxamide], the IC50 under setting [1] came to 0.95 nM.

On to `CC(C)(C)Cn1c(=O)c(C(=O)NC2CC2)c(O)n2nc(-c3cc(C#N)n[nH]3)cc12` [Synthesis Example 296, 2-(3-Cyano-1H-pyrazol-5-yl)-N-cyclopropyl-7-hydroxy-4-neopentyl-5-oxo-4,5-dihydropyrazolo[1,5-a]pyrimidine-6-carboxamide], for which the IC50 under setting [1] amounted to 2.93 nM.

Turning to `CC(C)Cn1c(=O)c(C(=O)NC2CC2)c(O)n2ncc(/C=C/C(=O)N3C[C@@H](F)[C@H](F)C3)c12` (racemic) [Synthesis Example 723, N-Cyclopropyl-3-((E)-3-(trans-3,4-difluoropyrrolidin-1-yl)-3-oxoprop-1-en-1-yl)-7-hydroxy-4-isobutyl-5-oxo-4,5-dihydropyrazolo[1,5-a]pyrimidine-6-carboxamide (racemate)], the IC50 under setting [2] was found to be 0.69 nM.

Regarding `Cc1nn2c(O)c(C(=O)NC3CC3)c(=O)n(CC(C)C)c2c1/C=C/C(=O)N1C[C@@H](C)OC[C@@H]1C` [Synthesis Example 647, N-Cyclopropyl-3-((E)-3-((2R,5S)-2,5-dimethylmorpholino)-3-oxoprop-1-en-1-yl)-7-hydroxy-4-isobutyl-2-methyl-5-oxo-4,5-dihydropyrazolo[1,5-a]pyrimidine-6-carboxamide], the IC50 under setting [1] came to 0.81 nM.

As to `CC(C)Cn1c(=O)c(C(=O)NC2CC2)c(O)n2ncc(/C=C/C(=O)N3CCC(C(C)C)CC3)c12` [compound 473, (E)-N-Cyclopropyl-7-hydroxy-4-isobutyl-3-(3-(4-isopropylpiperidin-1-yl)-3-oxoprop-1-en-1-yl)-5-oxo-4,5-dihydropyrazolo[1,5-a]pyrimidine-6-carboxamide], the IC50 under setting [1] was 2.11 nM.

As to `Cc1nn2c(O)c(C(=O)NC3CC3)c(=O)n(CC(C)C)c2c1/C=C/C(=O)N1CCCC12CCCN(C)C2` (stereo not shown) [Synthesis Example 662, (E)-N-Cyclopropyl-7-hydroxy-4-isobutyl-2-methyl-3-(3-(7-methyl-1,7-diazaspiro[4.5]decan-1-yl)-3-oxoprop-1-en-1-yl)-5-oxo-4,5-dihydropyrazolo[1,5-a]pyrimidine-6-carboxamide], the IC50 under setting [1] was determined as 1.08 nM.

For the molecule `C/C(=C\c1cnn2c(O)c(C(=O)NC3CC3)c(=O)n(CC(C)C)c12)C(=O)N(C)CC#N` [Synthesis Example 258, (E)-3-(3-((Cyanomethyl)(methyl)amino)-2-methyl-3-oxoprop-1-en-1-yl)-N-cyclopropyl-7-hydroxy-4-isobutyl-5-oxo-4,5-dihydropyrazolo[1,5-a]pyrimidine-6-carboxamide], the IC50 under setting [1] came out at 0.74 nM.

With `CC(C)(C)Cn1c(=O)c(C(=O)NC2CC2)c(O)n2nc(N)cc12` [Synthesis Example 4, 2-Amino-N-cyclopropyl-7-hydroxy-4-neopentyl-5-oxo-4,5-dihydropyrazolo[1,5-a]pyrimidine-6-carboxamide hydrochloride], for the setting “Evaluation Example 2, seven concentrations 0.14 nM to 100 nM, 240 minutes at room temperature, hydrochloride, read-out: IC50”, the IC50 came out at 0.9 nM.

Consider `CC(C)Cn1c(=O)c(C(=O)NCC(F)(F)F)c(O)n2nc(Nc3cnccn3)cc12` [Synthesis Example 348, 7-Hydroxy-4-isobutyl-5-oxo-2-(pyrazin-2-ylamino)-N-(2,2,2-trifluoroethyl)-4,5-dihydropyrazolo[1,5-a]pyrimidine-6-carboxamide], for which, under setting [1], the IC50 came to 2.84 nM.

As to `CC(C)Cn1c(=O)c(C(=O)NC2CC2)c(O)n2ncc(/C=C/c3cscn3)c12` [Synthesis Example 240, (E)-N-Cyclopropyl-7-hydroxy-4-isobutyl-5-oxo-3-(2-(thiazol-4-yl)vinyl)-4,5-dihydropyrazolo[1,5-a]pyrimidine-6-carboxamide], the IC50 under setting [1] was found to be 1.84 nM.

As for `CC(C)Cn1c(=O)c(C(=O)NC2CC2)c(O)n2ncc(/C=C/C(=O)N3C[C@@H](C)O[C@H](C)C3)c12` [compound 491], the IC50 under setting [1] was 0.82 nM.

Regarding `Cc1nn2c(O)c(C(=O)NC3CC3)c(=O)n(CC(C)C)c2c1/C=C/C(=O)N1CCN(C2CC(F)(F)C2)CC1` [Synthesis Example 615, (E)-N-Cyclopropyl-3-(3-(4-(3,3-difluorocyclobutyl)piperazin-1-yl)-3-oxoprop-1-en-1-yl)-7-hydroxy-4-isobutyl-2-methyl-5-oxo-4,5-dihydropyrazolo[1,5-a]pyrimidine-6-carboxamide], under setting [1], the IC50 is 1.4 nM.

With `CC(C)Cn1c(=O)c(C(=O)NC2CC2)c(O)n2ncc(/C=C/C(=O)N3CCOC[C@@H]3CO)c12` [compound 525, (S,E)-N-Cyclopropyl-7-hydroxy-3-(3-(3-(hydroxymethyl)morpholino)-3-oxoprop-1-en-1-yl)-4-isobutyl-5-oxo-4,5-dihydropyrazolo[1,5-a]pyrimidine-6-carboxamide], under setting [1], the IC50 worked out at 0.65 nM.
